Laboratory results: PMC12892976, “Alkylation-based optimization of antifungal FPPS inhibitors yields a potent, broad-spectrum lipophilic zoledronate derivative” (mBio, 2025)
Values after ≈ are worked out from the molar mass of the structure shown. Read-outs that look alike come from different tables or passages of the source.

Columns and labels:
Trichophyton rubrum [1] = test: MIC/MFC broth microdilution (CLSI); conditions: Trichophyton rubrum R-218
Procedure: (§1) Antifungal susceptibility was determined by broth microdilution according to the CLSI guidelines described in M27-Ed4 ([16]). […] MFC was determined by back-plating drug-treated cultures from MIC broths onto SDA plates. The MFC was defined as the lowest concentration from which no colonies could be cultured.

HEK-293T cells = test: MTT reduction cytotoxicity assay; type: cell-based; conditions: Homo sapiens
[2] = system: Cryptococcus deuterogattii; test: MIC/MFC broth microdilution (CLSI);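 note: broth microdilution per CLSI M27-Ed4. MFC is the lowest concentration yielding no colonies when MIC broths are subcultured onto SDA plates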
Procedure: as §1

Fusarium oxysporum = test: checkerboard drug interaction (FICI, MICc); type: cell-based;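 note: simplified diagonal checkerboard screen pairing antifungals with FPPS inhibitors, FICI calculated under the Loewe additivity model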
Procedure: (§2) Drug interactions between antifungals and FPPS inhibitors were investigated using a simplified checkerboard diagonal screening method ([45]). […] FICIs were determined according to the Loewe additivity model ([17]).

eight fungal species = test: checkerboard interaction with azoles, summary across the eight species; type: cell-based
Source text: Synergy between lipophilic FPPS inhibitors and azole antifungals was investigated by determining the fractional inhibitory concentration index (FICI) (Fig. 2; Table S1 Fig. S1) ([17]). […]. Derivatives PLA9 and 11, and PDA9, 11, and 12 antagonized azoles in C. albicans, C. neoformans, and C. deuterogattii, yet were largely synergistic in C. glabrata and S. cerevisiae. […].

Aspergillus flavus [3] = test: checkerboard drug interaction (FICI, MICc); type: cell-based; parameters: INH MICc (KET:INH) / INH MICc (FLC:INH): unit not given beside the values;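 note: simplified diagonal checkerboard screen pairing azole antifungals with FPPS inhibitors, FICI calculated under the Loewe additivity model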
Candida albicans = test: checkerboard drug interaction (FICI, MICc); type: cell-based; conditions: for INH FD (MIC-MICc fold decrease): fold decrease of inhibitor MIC;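 for all read-outs here: antifungal plus FPPS inhibitor combinations on Candida albicans tested by a simplified diagonal checkerboard screen, with FICI calculated under the Loewe additivity model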
Procedure: as §2

Aspergillus fumigatus = test: checkerboard drug interaction (FICI, MICc); type: cell-based; conditions: for INH FD (MIC-MICc fold decrease): fold decrease of inhibitor MIC;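 for all read-outs here: simplified diagonal checkerboard screen pairing antifungals with FPPS inhibitors against Aspergillus fumigatus, with FICI calculated under the Loewe additivity model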
Procedure: as §2

Aspergillus flavus [4] = test: MIC/MFC broth microdilution (CLSI); conditions: ATCC204304
Procedure: as §1

Trichophyton rubrum [5] = test: checkerboard drug interaction (FICI, MICc); type: cell-based;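 note: simplified diagonal checkerboard screen pairing azole antifungals with FPPS inhibitors, FICI calculated under the Loewe additivity model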
Procedure: as §2

[6] = C. albicans, FLC:INH combination
[7] = C. albicans, ITR:INH combination
[8] = C. albicans, KET:INH combination
[9] = A. fumigatus, FLC:INH combination
[10] = A. fumigatus, ITR:INH combination
[11] = A. fumigatus, KET:INH combination

O=P(O)(O)C(O)(Cn1ccnc1)P(=O)(O)O [ZOL, zoledronate]
MIC / MEC (Trichophyton rubrum [1]): 128 µg/mL (≈ 470 µM) | IC50 (HEK-293T cells; HEK-293T, read-out: HEK IC50): > 256 µg/mL | IC50 (HEK-293T cells; HEK-293T cells, projected value, read-out: predicted IC50): > 256 µg/mL | MFC ([2]; Cryptococcus deuterogattii): 128 µg/mL (≈ 470 µM) | MIC ([2]; Cryptococcus deuterogattii): 128 µg/mL (≈ 470 µM) | MIC / MEC ([2]; Cryptococcus deuterogattii R265): 128 µg/mL (≈ 470 µM) | FICI (Fusarium oxysporum; 5FC:ZOL): ≥4 | FICI (Fusarium oxysporum; AMB:ZOL): 0.63 | FICI (Fusarium oxysporum; CAS:ZOL): 2.5 | FICI (Fusarium oxysporum; FLC:ZOL): 0.75 | FICI (Fusarium oxysporum; ITR:ZOL): 0.5 | FICI (Fusarium oxysporum; KET:ZOL): 0.75 | FICI (Fusarium oxysporum; VOR:ZOL): 1.02 | bisphosphonate MICc (Fusarium oxysporum; ZOL with 5FC): 256 | bisphosphonate MICc (Fusarium oxysporum; ZOL with AMB): 64 | bisphosphonate MICc (Fusarium oxysporum; ZOL with CAS): 256 | bisphosphonate MICc (Fusarium oxysporum; ZOL with FLC): 256 | bisphosphonate MICc (Fusarium oxysporum; ZOL with ITR): 128 | bisphosphonate MICc (Fusarium oxysporum; ZOL with KET): 256 | bisphosphonate MICc (Fusarium oxysporum; ZOL with VOR): 8 | effect on azole MIC in combination (eight fungal species; across all species tested): consistently reduced the MIC of the azole | antagonism with azole drugs (eight fungal species; any of the azole drugs in any species tested): no antagonism | GM fungal MICc (eight fungal species; geometric mean MIC in combination with azoles): 14.3 | FICI (Aspergillus flavus [3]; 5FC:ZOL): 2 | FICI (FLC:INH) (Aspergillus flavus [3]; A. flavus, Fractional Inhibitory Concentration Index, fluconazole + inhibitor): 0.63 | FICI (ITR:INH) (Aspergillus flavus [3]; A. flavus, Fractional Inhibitory Concentration Index, itraconazole + inhibitor): 1.13 | FICI (KET:INH) (Aspergillus flavus [3]; A. flavus, Fractional Inhibitory Concentration Index, ketoconazole + inhibitor): 1.5 | INH MICc (FLC:INH) (Aspergillus flavus [3]; A. flavus, MIC of the inhibitor in combination with fluconazole): 32 | INH MICc (ITR:INH) (Aspergillus flavus [3]; A. flavus, MIC of the inhibitor in combination with itraconazole): 32 | INH MICc (KET:INH) (Aspergillus flavus [3]; A. flavus, MIC of the inhibitor in combination with ketoconazole): 128 | FLC FD (FLC:INH) (Aspergillus flavus [3]; A. flavus, MIC-MICc fold decrease of fluconazole, negative = increase): 2 | ITR FD (ITR:INH) (Aspergillus flavus [3]; A. flavus, MIC-MICc fold decrease of itraconazole, negative = increase): 1 | KET FD (KET:INH) (Aspergillus flavus [3]; A. flavus, MIC-MICc fold decrease of ketoconazole, negative = increase): 1 | INH FD (FLC:INH) (Aspergillus flavus [3]; A. flavus, MIC-MICc fold decrease of the inhibitor, with fluconazole): 8 | INH FD (ITR:INH) (Aspergillus flavus [3]; A. flavus, MIC-MICc fold decrease of the inhibitor, with itraconazole): 8 | INH FD (KET:INH) (Aspergillus flavus [3]; A. flavus, MIC-MICc fold decrease of the inhibitor, with ketoconazole): 2 | FICI (Aspergillus flavus [3]; AMB:ZOL): 0.63 | FICI (Aspergillus flavus [3]; CAS:ZOL): 1 | FICI (Aspergillus flavus [3]; FLC:ZOL): 0.56 | FICI (Aspergillus flavus [3]; ITR:ZOL): 1.06 | FICI (Aspergillus flavus [3]; KET:ZOL): 1.25 | FICI (Aspergillus flavus [3]; VOR:ZOL): 1 | bisphosphonate MICc (Aspergillus flavus [3]; ZOL with 5FC): 512 | bisphosphonate MICc (Aspergillus flavus [3]; ZOL with AMB): 64 | bisphosphonate MICc (Aspergillus flavus [3]; ZOL with CAS): 256 | bisphosphonate MICc (Aspergillus flavus [3]; ZOL with FLC): 32 | bisphosphonate MICc (Aspergillus flavus [3]; ZOL with ITR): 32 | bisphosphonate MICc (Aspergillus flavus [3]; ZOL with KET): 128 | bisphosphonate MICc (Aspergillus flavus [3]; ZOL with VOR): 256 | FICI (Aspergillus flavus [3]; with FLC, Aspergillus flavus): 0.63 | FICI (Aspergillus flavus [3]; with ITR, Aspergillus flavus): 1.13 | FICI (Aspergillus flavus [3]; with KET, Aspergillus flavus): 1.50 | FICI (Candida albicans; 5FC:ZOL): 1.13 | FICI (Candida albicans; AMB:ZOL): 1.25 | FICI (Candida albicans; [6]): 0.53 | INH MICc (Candida albicans; C. albicans, FLC:INH combination, MIC of the inhibitor in combination with FLC): 8 | FLC FD (MIC-MICc fold decrease) (Candida albicans; C. albicans, FLC:INH combination, fold decrease of FLC MIC): 2 | INH FD (MIC-MICc fold decrease) (Candida albicans; [6]): 32 | FICI (Candida albicans; [7]): 1.13 | INH MICc (Candida albicans; C. albicans, ITR:INH combination, MIC of the inhibitor in combination with ITR): 32 | ITR FD (MIC-MICc fold decrease) (Candida albicans; C. albicans, ITR:INH combination, fold decrease of ITR MIC): 1 | INH FD (MIC-MICc fold decrease) (Candida albicans; [7]): 8 | FICI (Candida albicans; [8]): 1.13 | INH MICc (Candida albicans; C. albicans, KET:INH combination, MIC of the inhibitor in combination with KET): 32 | KET FD (MIC-MICc fold decrease) (Candida albicans; C. albicans, KET:INH combination, fold decrease of KET MIC): 1 | INH FD (MIC-MICc fold decrease) (Candida albicans; [8]): 8 | FICI (Candida albicans; CAS:ZOL): 2.17 | FICI (Candida albicans; FLC:ZOL): 0.53 | FICI (Candida albicans; ITR:ZOL): 1.13 | FICI (Candida albicans; KET:ZOL): 1.13 | FICI (Candida albicans; VOR:ZOL): 1.46 | bisphosphonate MICc (Candida albicans; ZOL with 5FC): 16 | bisphosphonate MICc (Candida albicans; ZOL with AMB): 32 | bisphosphonate MICc (Candida albicans; ZOL with CAS): 32 | bisphosphonate MICc (Candida albicans; ZOL with FLC): 8 | bisphosphonate MICc (Candida albicans; ZOL with ITR): 32 | bisphosphonate MICc (Candida albicans; ZOL with KET): 32 | bisphosphonate MICc (Candida albicans; ZOL with VOR): 64 | FICI (Candida albicans; with FLC, Candida albicans): 0.53 | FICI (Candida albicans; with ITR, Candida albicans): 1.13 | FICI (Candida albicans; with KET, Candida albicans): 1.13 | FICI (Aspergillus fumigatus; 5FC:ZOL): 2 | FICI (Aspergillus fumigatus; [9]): 0.75 | FLC MICc (Aspergillus fumigatus; A. fumigatus, FLC:INH combination, MIC of FLC in combination with the inhibitor): 64 | INH MICc (Aspergillus fumigatus; A. fumigatus, FLC:INH combination, MIC of the inhibitor in combination with FLC): 64 | FLC FD (MIC-MICc fold decrease) (Aspergillus fumigatus; A. fumigatus, FLC:INH combination, fold decrease of FLC MIC): 2 | INH FD (MIC-MICc fold decrease) (Aspergillus fumigatus; [9]): 4 | FICI (Aspergillus fumigatus; [10]): 0.51 | ITR MICc (Aspergillus fumigatus; A. fumigatus, ITR:INH combination, MIC of ITR in combination with the inhibitor): 0.063 | INH MICc (Aspergillus fumigatus; A. fumigatus, ITR:INH combination, MIC of the inhibitor in combination with ITR): 2 | ITR FD (MIC-MICc fold decrease) (Aspergillus fumigatus; A. fumigatus, ITR:INH combination, fold decrease of ITR MIC): 2 | INH FD (MIC-MICc fold decrease) (Aspergillus fumigatus; [10]): 128 | FICI (Aspergillus fumigatus; [11]): 0.75 | KET MICc (Aspergillus fumigatus; A. fumigatus, KET:INH combination, MIC of KET in combination with the inhibitor): 2 | INH MICc (Aspergillus fumigatus; A. fumigatus, KET:INH combination, MIC of the inhibitor in combination with KET): 64 | KET FD (MIC-MICc fold decrease) (Aspergillus fumigatus; A. fumigatus, KET:INH combination, fold decrease of KET MIC): 2 | INH FD (MIC-MICc fold decrease) (Aspergillus fumigatus; [11]): 4 | FICI (Aspergillus fumigatus; AMB:ZOL): 1.03 | FICI (Aspergillus fumigatus; CAS:ZOL): 0.75 | FICI (Aspergillus fumigatus; FLC:ZOL): 0.75 | FICI (Aspergillus fumigatus; ITR:ZOL): 0.51 | FICI (Aspergillus fumigatus; KET:ZOL): 0.75 | FICI (Aspergillus fumigatus; VOR:ZOL): 0.75 | bisphosphonate MICc (Aspergillus fumigatus; ZOL with 5FC): 512 | bisphosphonate MICc (Aspergillus fumigatus; ZOL with AMB): 16 | bisphosphonate MICc (Aspergillus fumigatus; ZOL with CAS): 128 | bisphosphonate MICc (Aspergillus fumigatus; ZOL with FLC): 64 | bisphosphonate MICc (Aspergillus fumigatus; ZOL with ITR): 2 | bisphosphonate MICc (Aspergillus fumigatus; ZOL with KET): 128 | bisphosphonate MICc (Aspergillus fumigatus; ZOL with VOR): 64 | FICI (Aspergillus fumigatus; with FLC, Aspergillus fumigatus): 0.75 | FICI (Aspergillus fumigatus; with ITR, Aspergillus fumigatus): 0.51 | FICI (Aspergillus fumigatus; with KET, Aspergillus fumigatus): 0.75 | MFC (Aspergillus flavus [4]): > 128 µg/mL | MIC (Aspergillus flavus [4]): > 128 µg/mL | MIC / MEC (Aspergillus flavus [4]): >256 µg/mL | FICI (Trichophyton rubrum [5]; 5FC:ZOL): 2 | FICI (Trichophyton rubrum [5]; AMB:ZOL): ≥4 | FICI (Trichophyton rubrum [5]; CAS:ZOL): 0.5 | FICI (Trichophyton rubrum [5]; FLC:ZOL): 0.5 | FICI (Trichophyton rubrum [5]; ITR:ZOL): 0.75 | FICI (Trichophyton rubrum [5]; KET:ZOL): 0.38 | FICI (FLC:INH) (Trichophyton rubrum [5]; T. rubrum, Fractional Inhibitory Concentration Index, fluconazole + inhibitor): 0.5 | FICI (ITR:INH) (Trichophyton rubrum [5]; T. rubrum, Fractional Inhibitory Concentration Index, itraconazole + inhibitor): 0.75 | FICI (KET:INH) (Trichophyton rubrum [5]; T. rubrum, Fractional Inhibitory Concentration Index, ketoconazole + inhibitor): 0.38 | INH MICc (FLC:INH) (Trichophyton rubrum [5]; T. rubrum, MIC of the inhibitor in combination with fluconazole): 32 | INH MICc (ITR:INH) (Trichophyton rubrum [5]; T. rubrum, MIC of the inhibitor in combination with itraconazole): 64 | INH MICc (KET:INH) (Trichophyton rubrum [5]; T. rubrum, MIC of the inhibitor in combination with ketoconazole): 16 | FLC FD (FLC:INH) (Trichophyton rubrum [5]; T. rubrum, MIC-MICc fold decrease of fluconazole, negative = increase): 4 | ITR FD (ITR:INH) (Trichophyton rubrum [5]; T. rubrum, MIC-MICc fold decrease of itraconazole, negative = increase): 4 | KET FD (KET:INH) (Trichophyton rubrum [5]; T. rubrum, MIC-MICc fold decrease of ketoconazole, negative = increase): 4 | INH FD (FLC:INH) (Trichophyton rubrum [5]; T. rubrum, MIC-MICc fold decrease of the inhibitor, with fluconazole): 4 | INH FD (ITR:INH) (Trichophyton rubrum [5]; T. rubrum, MIC-MICc fold decrease of the inhibitor, with itraconazole): 2 | INH FD (KET:INH) (Trichophyton rubrum [5]; T. rubrum, MIC-MICc fold decrease of the inhibitor, with ketoconazole): 8 | FICI (Trichophyton rubrum [5]; VOR:ZOL): 0.38 | bisphosphonate MICc (Trichophyton rubrum [5]; ZOL with 5FC): 128 | bisphosphonate MICc (Trichophyton rubrum [5]; ZOL with AMB): 256 | bisphosphonate MICc (Trichophyton rubrum [5]; ZOL with CAS): 32 | bisphosphonate MICc (Trichophyton rubrum [5]; ZOL with FLC): 32 | bisphosphonate MICc (Trichophyton rubrum [5]; ZOL with ITR): 64 | bisphosphonate MICc (Trichophyton rubrum [5]; ZOL with KET): 16 | bisphosphonate MICc (Trichophyton rubrum [5]; ZOL with VOR): 16 | FICI (Trichophyton rubrum [5]; with ITR, Trichophyton rubrum): 0.75
